The record followed here is US10647745B2, “Compound for treating sequelae of ischemic cerebral stroke” (priority 2015, dated 2020).

SMILES strings stand for the structures. Residues, ends and D or L forms follow the SMILES beside them.

Experiment [1] is described as follows: Body weight of rats in 1.5-hour ischemia/reperfusion model. Format: in vivo, Sprague-Dawley (SD) rats. The conditions noted are these: 3.6 mg/kg i.p. once a day. How it is done: (§1) Sprague-Dawley (SD) rats, male, weighing 280-320 g, clean, feeding, conditions: room temperature of 20-25° C., humidity of 30-60%, well ventilated, ad libitum diet; the animals were acclimatized in the feeding environment for three days prior to the experiment.
(§2) The rats were anesthetized with 4% chloral hydrate (350 mg/kg, ip.) and then were fixed in a supine position. A midline ventral neck incision was made, the right common carotid artery was separated and snared with two sutures for further use. Then, the internal carotid artery and external carotid artery were separated, and the external carotid artery was ligatured. The separated common carotid artery was ligatured at its proximal end with a thread, and the blood flow of the same was blocked at its distal end with a bulldog clamp. A small opening was cut therebetween and a nylon suture (4-0) which is heated at one end into a bead-like shape (having a diameter of <0.3 mm) was inserted into the small opening. The bulldog clamp was removed, and the nylon suture was gently advanced to the origin of the anterior cerebral artery (18-20 mm), thereby causing arterial ischemia in brain by blocking the blood supply of the cerebral artery. The skin was sutured and was sterilized with tincture of iodine. […]

Experiment [2] deals with right cerebral artery ischemia/reperfusion model in rats. Kind of experiment: Neurologic deficit score in rat 1.5-hour ischemia/reperfusion model. Format: in vivo, Sprague-Dawley (SD) rats. Particulars: 3.6 mg/kg i.p. once a day, vs model group without compound. How it is done:
as §1
as §2, with “opening.” for “opening. The bulldog clamp was removed, and the nylon suture was gently advanced to the origin of the anterior cerebral artery (18-20 mm), thereby causing arterial ischemia in brain by blocking the blood supply of the cerebral artery. The skin was sutured and was sterilized with tincture of iodine.”
Neurologic deficit scores were assessed for the above experimental animals according to the following procedure before the beginning of experiment and 24 hours, 1 day, 3 days, 7 days, 14 days, 28 days, 56 days, and 112 days after the beginning of experiment; Score rules: see Zea Longer score and NSS score, full score of 10; […]

As to `CC(C)CC(NC(=O)C(CCC(N)=O)NC(=O)C(NC(=O)C(CO)NC(=O)C(Cc1c[nH]cn1)NC(=O)C(N)C(C)C)C(C)C)C(=O)NC(Cc1ccc(O)cc1)C(=O)O` (stereo not shown) [compound of formula (III)] (H-VHSVQLY-OH; configuration not given here), the weight result was “gradually increased weight” in experiment [1] (I1.5R+1 week+dosing for 4 weeks, vs model group without compound) and “gradually increased weight” in experiment [1] (I1.5R+2 weeks+dosing for 4 weeks, vs model group, weight data said not demonstrative (groups differed before dosing)). Also, the “neuroethology score (neurologic deficit score)” value in experiment [2] (I1.5R+1 week+dosing for 4 weeks, statistically significant in 2nd, 3rd, 4th, 5th and 7th week after operation) is given as “gradually declined neuroethology score”. Moreover, the neurological scores entry in experiment [2] (I1.5R+2 weeks+dosing for 4 weeks, statistically significant at fifth week after operation) is on record as “declined from the beginning of the administration”.
